Results reported in patent US20220313803A1, “NOVEL NEOANTIGENS AND CANCER IMMUNOTHERAPY USING SAME” (BRIGHTPATH BIOTHERAPEUTICS CO., LTD., priority 2019, published 2022).
“Also recorded” adds a separate entry of the source.

T1: PIK3CA H1047R peptide on HLA-DRB1*04:05 (human)
T1 peptide: MKQMNDARHGGWTT

T2: PIK3CA wild-type peptide on HLA-DRB1*04:05 (human)
T2 peptide: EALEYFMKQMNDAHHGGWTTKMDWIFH

T3: PIK3CA H1047R peptide on HLA-DRB1*04:05 (human)
T3 peptide: EALEYFMKQMNDARH

T4: PIK3CA H1047R peptide on HLA-DRB1*04:05 (human)
T4 peptide: ALEYFMKQMNDARHG

T5: PIK3CA H1047R peptide on HLA-DRB1*04:05 (human)
T5 peptide: LEYFMKQMNDARHGG

T6: PIK3CA H1047R peptide on HLA-DRB1*04:05 (human)
T6 peptide: EYFMKQMNDARHGGW

T7: PIK3CA H1047R peptide on HLA-DRB1*04:05 (human)
T7 peptide: YFMKQMNDARHGGW

T8: PIK3CA H1047R peptide on HLA-DRB1*04:05 (human)
T8 peptide: FMKQMNDARHGGWT

B1: TCR of the donor No. 9-derived PIK3CA-H1047R-specific T cells (SEQ ID NOs 29 and 30) (TCR, V domains shown)
Valpha: QQVKQSPQSLIVQKGGISIINCAYENTAFEYFPWYQQFPGKGPALLIAIRPDVSEKKEGRFTISFNKSAKQFSLHIMDSQPGDSATYFCAASGSYNNNDMRFGAGTRLTVKP
Vbeta: NAGVTQTPKFQVLKTGQSMTLQCAQDMNHEYMSWYRQDPGMGLRLIHYSVGAGITDQGEVPNGYNVSRSTTEDFPLRLLSAAPSQTSVYFCASSYASPGTGYSGELFFGEGSRLTVL

Experiments:
[1] = tested on: antigen-specific T cells (CD4 or CD8-positive) from healthy human PBMCs; experiment: Immunogenicity evaluation of peptides with healthy human PBMCs (ICS for IFNy or IFNy ELISA); type: cell-based; conditions: for activation of CD8-positive cells: donor No. 9; for immunogenicity as HLA Class I / Class II epitope / activation of CD4-positive T cells: healthy donor PBMCs; for activation of CD4-positive T cells: CD4-positive IFNy-producing cells; for samples in which the peptide had immunogenicity (positive/tested): single peptide re-analysis, 24 donors (Mix-1, Mix-2 peptides) or 25 donors (Mix-3 peptides)
From the text: Peripheral blood mononuclear cells (PBMCs) that were those of a lot containing HLA-A*24:02 or A*02:01 of purified normal human PBMCs (Precision Bioservice, 93000-10M or -50M), were selected and used. Alternatively, PBMCs were separated and collected by density gradient centrifugation from peripheral blood provided by 10 healthy volunteers (including those of HLA-A*24:02 or A*02:01) recruited at the Kanagawa Cancer Center Research Institute, and were used in the experiment.
Healthy human PBMCs of 2×10^6 cells were cultured (a CO2 incubator; 5% CO2 and at 37° C.) for 7 days in the presence of the peptides to be evaluated (2, 2.5 or 5 μg/mL, and in the case of Mix (described later), 2 lag/mL for each peptide), and then the cells were collected. AIM-V medium (Thermo Fisher Scientific K.K., 12055-091) supplemented with a 5% human serum (NIP Biomedicals, 2931949) was used as medium.
On the other hand, the PBMCs of the same lot were cultured in the presence of a GM-CSF and IL-4 for 7 days to differentiate into dendritic cells (DC), and a part thereof was cryopreserved.
Cell stimulation for evaluation of immunogenicity was carried out according to the method outlined in FIG. 2. Namely, the PBMCs stimulated with the peptide for 7 days were collected and co-cultured in the presence of DC (1×10^5 cells) treated with a mitomycin C (60 μg/mL, Kyowa Kirin Co., Ltd.), each peptide (2, 2.5 or 5 μg/mL), and 0.1 KE/mL of OK-432 (for injection of Picibanil, Chugai Pharmaceutical Co., Ltd.). An IL-2 (PeproTech, Inc., AF-200-02) was added at 10 IU/mL on the second day of the co-culture (Day 9 with the stimulation start date as Day 0), and the cells were further cultured for 5 days.
After culturing (Day 14), the cells were collected, the cryopreserved DC was thawed, and the cells were co-cultured again in the presence of the same concentration of each peptide for 7 days. The cells cultured for a total of 21 days were collected, and activation of antigen-specific T cells was confirmed by intracellular cytokine staining (ICS) or IFNy ELISA. For evaluation, the PBMCs for 24 donors (of Mix-1 and Mix-2) or the PBMCs for 25 donors (of Mix-3) (the donor numbers 1 to 10 are derived from healthy volunteers, and the donor numbers with 3 digits were purchased from Precision Bioservice, Inc.), were used. In this study, 10 kinds of peptides designed from the sequences containing the driver mutations in Example 1 and synthesized (SEQ ID NO: 1 to SEQ ID NO: 10) were mixed to the following mixtures containing 3 to 4 kinds of peptides (see FIG. 4): Mix-1: a mixture of KRA S-G 1 2C (SEQ ID NO: 3), NRAS-Q61K (SEQ ID NO: 6) and PIK3CA-H1047R (SEQ ID NO: 8); Mix-2: a mixture of KRAS-G12V (SEQ ID NO: 2), NRAS-Q61R (SEQ ID NO: 7), and PIK3CA-E545K (SEQ ID NO: 9); and Mix-3: a mixture of KRAS-G12D (SEQ ID NO: 1), KRAS-G12R (SEQ ID NO: 4), KRAS-G13D (SEQ ID NO: 5), and C-Kit-D816V (SEQ ID NO: 10). First, activation of antigen-specific T cells by stimulation with each Mix was observed, and when the activation was observed, the T cells were stimulated in the presence of each peptide alone to identify a peptide having immunogenicity. The presence or absence of activation was determined by the ICS (IFNy) or ELISA (IFNy in the culture supernatant).
Intracellular cytokine staining (ICS) was carried out according to the following procedure. The cells (5.0×10^4 cells) cultured for 21 days in the presence of the peptide and collected in the present Example, and antigen-presenting cells (APC) (autologous DC; 5×10^3 cells) were placed in a 96-well U bottom plate and cultured for 2 hours in the presence of the peptide. 10 μg/mL of Brefeldin A (Merck KGaA, B7651) was added to the cells to culture for 20 to 24 hours. […]

[2] = tested on: PIK3CA-H1047R-specific TCR-T cells; experiment: Antigen specificity of TCR-T cells (IFNy-producing cells by flow cytometer); type: cell-based, human; conditions: TCR-T cells co-cultured with APC (donor No. 9-derived EB virus immortalized B cells) in the presence of the peptide, 20 to 24 hours
Protocol: Via a retrovirus vector (donated by Toyama University) to which the TCRa chain gene (SEQ ID NO: 29) and TCRI3 chain gene (SEQ ID NO: 30) identified in Example 5 derived from the donor No. 9-derived PIK3CA-H1047R-specific T cells were inserted, a cell line (TCR-T cell) expressing the TCR gene was prepared by introducing the PIK3CA-H1047R-specific TCR gene into T cells derived from healthy subjects. The prepared TCR-T cells (TCR gene-expressing cell line) (5.0×10^4 cells as T cells) and APC (donor No. 9-derived EB virus immortalized B cells; 5×10^3 cells) were cultured in a 96 well U bottom plate for 20 to 24 hours in the presence of the antigen peptide (PIK3CA-H1047R (SEQ ID NO: 8)) or the wild-type peptide thereof ([…]), then the cultured cells were collected, and antigen specificity was confirmed by detecting IFNy-producing cells with a flow cytometer.

[3] = target: T1, PIK3CA H1047R peptide on HLA-DRB1*04:05; experiment: cytokine release
[4] = target: T2, PIK3CA wild-type peptide on …; experiment: cytokine release
[5] = target: T3, PIK3CA H1047R peptide on HLA-DRB1*04:05; experiment: cytokine release
[6] = target: T4, PIK3CA H1047R peptide on HLA-DRB1*04:05; experiment: cytokine release
[7] = target: T5, PIK3CA H1047R peptide on HLA-DRB1*04:05; experiment: cytokine release
[8] = target: T6, PIK3CA H1047R peptide on HLA-DRB1*04:05; experiment: cytokine release
[9] = target: T7, PIK3CA H1047R peptide on HLA-DRB1*04:05; experiment: cytokine release
[10] = target: T8, PIK3CA H1047R peptide on HLA-DRB1*04:05; experiment: cytokine release

Row | Molecule | activation of CD8-positive cells [1] | immunogenicity as HLA Class I / Class II epitope [1] | activation of CD4-positive T cells [1] | samples in which the peptide had immunogenicity (positive/tested) [1] | frequency of IFNy-producing cells [2] | other results
1 | C-Kit-D816V: 27-mer C-Kit D816V neoantigen peptide GRITKICDFGLAR[V]IKNDSNYVVKGNA (GRITKICDFGLARVIKNDSNYVVKGNA; listed as Homo sapiens) | activation of CD8-positive cells was observed in 1 donor | immunogenicity as both the HLA Class I epitope and the Class II epitope | those derived from 4 donors were CD4 positive; also recorded: activation of CD4-positive T cells was observed; also recorded: particularly strong ability to activate CD4-positive helper T cells | 5/25 |  | 
2 | EALEYFMKQMNDAHHGGWTTKMDWIFH [WT1, wild-type peptide of PIK3CA-H1047R, reference compound] |  |  |  |  | less than 1% | 
3 | KRAS-G12D: 27-mer KRAS G12D neoantigen peptide MTEYKLVVVGA[D]GVGKSALTIQLIQNH |  |  | activation of CD4-positive T cells was observed; also recorded: particularly strong ability to activate CD4-positive helper T cells | 1/25 |  | frequency of samples in which the peptide had immunogenicity ([1]; samples derived from healthy people, single peptide analysis): 4.0%
4 | NRAS-Q61R: 27-mer NRAS Q61R neoantigen peptide GETCLLDILDTAG[R]EEYSAMRDQYMRT (GETCLLDILDTAGREEYSAMRDQYMRT; listed as Homo sapiens) |  |  | they were all CD4-positive T cells; also recorded: activation of CD4-positive T cells was observed; also recorded: particularly strong ability to activate CD4-positive helper T cells | 3/24 |  | 
5 | PIK3CA-H1047R: 27-mer PIK3CA H1047R neoantigen peptide EALEYFMKQMNDA[R]HGGWTTKMDWIFH (EALEYFMKQMNDARHGGWTTKMDWIFH; listed as Homo sapiens) | activation of CD8-positive cells was also observed | immunogenicity as both the HLA Class I epitope and the Class II epitope | All antigen-specific T cells activated in the 4 donors were CD4 positive; also recorded: activation of CD4-positive T cells was observed; also recorded: particularly strong ability to activate CD4-positive helper T cells | 4/24 | 30.4%±0.9% | 
6 | B1 |  |  |  |  |  | binding result [3]: recognises; binding result [4]: no recognition; binding result [5]: recognises; binding result [6]: recognises; binding result [7]: recognises; binding result [8]: recognises; binding result [9]: recognises; binding result [10]: recognises
